Laboratory results reported in US20130137757A1 (priority 2010, published 2013).

Tests used:
[1] = system: influenza viruses A/PR/8/34 (H1N1 type) strain; test: hemagglutination inhibition test; format: cell-based, influenza virus; conditions: guinea pig red blood cell suspensions, A/PR/8/34 (H1N1) strain, in PBS
[2] = system: influenza viruses A/Memphis/1/71 (H3N2 type) strain; test: hemagglutination inhibition test; format: cell-based, influenza virus; conditions: guinea pig red blood cell suspensions, A/Memphis/1/71 (H3N2) strain, in PBS

## deoxyribonucleic acid [DNA]
[1]
  hemagglutination (visual and microscopic observation): strong hemagglutination was observed
[2]
  hemagglutination (visual and microscopic observation): strong hemagglutination was observed
